# Measurements taken from PMC6934184, “Selective DNA-PKcs inhibition extends the therapeutic index of localized radiotherapy and chemotherapy” (The Journal of Clinical Investigation, 2019).
# Molecular target: T1, EPHA8 (Homo sapiens, UniProt P29322)
# T1 construct: purchased Thermo Fisher Scientific (Life Technologies) SelectScreen
# Assay: SelectScreen Z'LYTE
# Type: biochemical
# Summary of the method: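 NU5455 was profiled across the SelectScreen Broad panel of kinase activity and binding assays. Z'LYTE reactions such as CSF1R ran at apparent Km ATP, while the Adapta CAMK1 assay used ATP listed as 10. Values are given as percent.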
# T1 sequence (P29322 28-1005): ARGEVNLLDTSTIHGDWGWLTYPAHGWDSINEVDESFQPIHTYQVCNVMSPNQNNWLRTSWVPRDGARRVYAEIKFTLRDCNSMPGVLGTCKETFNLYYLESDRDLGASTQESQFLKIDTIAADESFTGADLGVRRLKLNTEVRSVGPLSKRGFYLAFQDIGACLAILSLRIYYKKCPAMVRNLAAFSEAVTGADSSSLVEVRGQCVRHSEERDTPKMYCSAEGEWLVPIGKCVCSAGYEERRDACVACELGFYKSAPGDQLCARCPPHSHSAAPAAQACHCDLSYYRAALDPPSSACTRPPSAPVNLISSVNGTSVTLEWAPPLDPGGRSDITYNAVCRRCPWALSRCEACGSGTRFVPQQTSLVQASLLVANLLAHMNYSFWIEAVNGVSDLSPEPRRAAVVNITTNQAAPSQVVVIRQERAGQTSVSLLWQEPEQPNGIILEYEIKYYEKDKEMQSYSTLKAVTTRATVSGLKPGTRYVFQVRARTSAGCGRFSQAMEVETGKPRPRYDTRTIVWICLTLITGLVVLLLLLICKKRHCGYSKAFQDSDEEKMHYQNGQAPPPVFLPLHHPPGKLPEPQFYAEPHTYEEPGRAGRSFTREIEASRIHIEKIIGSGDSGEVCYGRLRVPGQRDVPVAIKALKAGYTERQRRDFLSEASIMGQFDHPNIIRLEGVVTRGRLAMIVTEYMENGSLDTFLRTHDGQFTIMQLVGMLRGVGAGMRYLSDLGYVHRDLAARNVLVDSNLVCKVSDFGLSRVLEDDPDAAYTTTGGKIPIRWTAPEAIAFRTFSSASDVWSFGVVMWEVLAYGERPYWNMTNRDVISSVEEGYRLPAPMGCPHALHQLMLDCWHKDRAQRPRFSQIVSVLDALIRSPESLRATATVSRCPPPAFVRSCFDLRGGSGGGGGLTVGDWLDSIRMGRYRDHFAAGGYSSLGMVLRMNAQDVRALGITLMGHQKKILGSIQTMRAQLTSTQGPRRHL
smiles,measurement,value
CN(C(=O)CN1CCOCC1)c1ccc2sc3c(-c4cccc5c(=O)cc(N6CC7CCC(C6)O7)oc45)cccc3c2c1 [NU5455],inhibition at 1 µM,-13.8%
